{"source": "paper PMC6789174", "about": "(Drug Design, Development and Therapy, 2019)", "key": {"[1]": {"test": "DPPH free radical scavenging"}, "[2]": {"test": "ABTS free radical scavenging"}, "[3]": {"target": "Acetylcholinesterase (Homo sapiens, UniProt P22303)", "sequence (P22303 32-614, species assumed)": "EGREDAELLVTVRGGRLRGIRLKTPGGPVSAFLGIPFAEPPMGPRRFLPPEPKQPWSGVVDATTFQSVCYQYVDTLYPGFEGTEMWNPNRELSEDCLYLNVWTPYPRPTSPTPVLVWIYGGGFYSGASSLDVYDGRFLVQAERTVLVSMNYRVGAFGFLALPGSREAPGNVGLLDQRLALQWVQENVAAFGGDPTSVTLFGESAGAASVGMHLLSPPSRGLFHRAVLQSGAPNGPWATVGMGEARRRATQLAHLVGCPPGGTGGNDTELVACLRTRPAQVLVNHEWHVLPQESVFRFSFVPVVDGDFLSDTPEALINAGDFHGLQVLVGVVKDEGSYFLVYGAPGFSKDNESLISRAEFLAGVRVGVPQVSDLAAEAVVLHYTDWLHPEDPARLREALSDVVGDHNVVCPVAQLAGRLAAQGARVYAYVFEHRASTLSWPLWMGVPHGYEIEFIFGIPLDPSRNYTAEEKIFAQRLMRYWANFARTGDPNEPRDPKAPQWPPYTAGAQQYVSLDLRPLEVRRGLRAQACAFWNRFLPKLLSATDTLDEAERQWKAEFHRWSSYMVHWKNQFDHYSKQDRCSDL", "test": "biochemical"}, "[4]": {"target": "Butyrylcholinesterase (Homo sapiens, UniProt P06276)", "sequence (P06276 29-602)": "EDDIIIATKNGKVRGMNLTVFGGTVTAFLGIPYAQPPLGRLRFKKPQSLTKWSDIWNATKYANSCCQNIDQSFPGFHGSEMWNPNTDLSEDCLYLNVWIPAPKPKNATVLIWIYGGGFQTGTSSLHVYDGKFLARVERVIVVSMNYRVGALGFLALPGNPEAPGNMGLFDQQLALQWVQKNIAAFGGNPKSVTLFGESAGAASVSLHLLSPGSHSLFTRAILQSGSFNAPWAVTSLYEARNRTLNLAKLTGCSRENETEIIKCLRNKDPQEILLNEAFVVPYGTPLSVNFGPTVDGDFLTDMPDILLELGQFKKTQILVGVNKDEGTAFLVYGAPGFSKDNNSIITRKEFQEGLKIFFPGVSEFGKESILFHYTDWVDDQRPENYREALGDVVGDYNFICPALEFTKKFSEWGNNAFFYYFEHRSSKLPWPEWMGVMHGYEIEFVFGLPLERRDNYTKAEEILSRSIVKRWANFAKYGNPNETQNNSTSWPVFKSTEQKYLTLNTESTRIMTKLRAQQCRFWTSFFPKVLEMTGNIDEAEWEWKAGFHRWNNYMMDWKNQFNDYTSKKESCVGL", "test": "Anticholinesterase assay", "format": "biochemical"}, "[5]": {"target": "T1, porcine α-amylase (Sus scrofa, UniProt P00690)", "T1 sequence (P00690 16-511)": "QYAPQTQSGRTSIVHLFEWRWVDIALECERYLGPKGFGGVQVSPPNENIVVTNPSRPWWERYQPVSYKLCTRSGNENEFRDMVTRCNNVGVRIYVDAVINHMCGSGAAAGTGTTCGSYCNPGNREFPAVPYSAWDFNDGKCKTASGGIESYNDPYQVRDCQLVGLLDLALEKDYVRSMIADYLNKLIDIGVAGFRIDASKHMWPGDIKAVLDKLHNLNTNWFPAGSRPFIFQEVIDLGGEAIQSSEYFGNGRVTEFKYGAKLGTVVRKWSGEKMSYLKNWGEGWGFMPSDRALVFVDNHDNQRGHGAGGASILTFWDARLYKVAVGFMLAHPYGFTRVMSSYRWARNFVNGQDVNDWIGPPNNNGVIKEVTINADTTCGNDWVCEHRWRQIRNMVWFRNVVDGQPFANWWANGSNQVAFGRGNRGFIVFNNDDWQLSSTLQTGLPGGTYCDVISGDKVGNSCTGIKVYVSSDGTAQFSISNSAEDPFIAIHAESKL", "test": "biochemical"}, "[6]": {"target": "T2, glucose-6-phosphatase (Homo sapiens, UniProt P35575)", "T2 sequence (P35575 1-357)": "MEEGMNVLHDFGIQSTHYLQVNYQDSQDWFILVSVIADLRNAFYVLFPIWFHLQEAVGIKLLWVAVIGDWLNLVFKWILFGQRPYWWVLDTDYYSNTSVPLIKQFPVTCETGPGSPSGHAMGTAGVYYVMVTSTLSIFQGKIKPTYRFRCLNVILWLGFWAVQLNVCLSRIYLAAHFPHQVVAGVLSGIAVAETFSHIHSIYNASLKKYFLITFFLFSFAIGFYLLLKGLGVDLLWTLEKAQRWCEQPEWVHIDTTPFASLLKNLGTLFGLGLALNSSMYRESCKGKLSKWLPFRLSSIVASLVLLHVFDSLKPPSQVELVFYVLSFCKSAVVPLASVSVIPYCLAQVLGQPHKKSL", "test": "Glucose-6-phosphatase activity", "format": "biochemical", "settings": "33°C, pH 6.7, control 72.0"}, "[7]": {"tested_on": "Agrobacterium tumefaction", "test": "Anti-bacterial activity, agar well diffusion", "format": "cell-based"}, "[8]": {"tested_on": "Proteus vulgaris", "test": "Anti-bacterial activity, agar well diffusion", "format": "cell-based"}, "[9]": {"tested_on": "Staphylococcus aureus", "test": "Anti-bacterial activity, agar well diffusion", "format": "cell-based"}, "[10]": {"settings": "read-out: %AChE Inhibition (mean ± SEM)"}, "[11]": {"settings": "read-out: %BChE Inhibition (mean ± SEM)"}, "[12]": {"settings": "read-out: ZI (Zone of inhibition), Agrobacterium tumefaction"}, "[13]": {"settings": "read-out: ZI (Zone of inhibition), Proteus vulgaris"}, "[14]": {"settings": "read-out: ZI (Zone of inhibition), Staphylococcus aureus"}}}
{"smiles": "O=C1O[C@H]([C@@H](O)CO)C(O)=C1O", "note": "[Ascorbic acid, reference compound]", "values": [{"measurement": "DPPH IC50", "setting": "[1]", "result": 35, "unit": "µg/mL"}, {"measurement": "DPPH % I (mean ± S.E.M)", "setting": "[1]; concentration 125 μg/mL", "result": "67.40±1.18", "unit": "%"}, {"measurement": "DPPH % I (mean ± S.E.M)", "setting": "[1]; concentration 250 μg/mL", "result": "76.13±1.45", "unit": "%"}, {"measurement": "DPPH % I (mean ± S.E.M)", "setting": "[1]; concentration 500 μg/mL", "result": "85.11 ± 1.64", "unit": "%"}, {"measurement": "DPPH % I (mean ± S.E.M)", "setting": "[1]; concentration 1000 μg/mL", "result": "90.14 ± 0.76", "unit": "%"}, {"measurement": "ABTS IC50", "setting": "[2]", "result": 55, "unit": "µg/mL"}, {"measurement": "ABTS % I (mean ± S.E.M)", "setting": "[2]; concentration 125 μg/mL", "result": "55.30 ± 1.75", "unit": "%"}, {"measurement": "ABTS % I (mean ± S.E.M)", "setting": "[2]; concentration 250 μg/mL", "result": "70.14 ± 1.16", "unit": "%"}, {"measurement": "ABTS % I (mean ± S.E.M)", "setting": "[2]; concentration 500 μg/mL", "result": "85.45 ± 1.36", "unit": "%"}, {"measurement": "ABTS % I (mean ± S.E.M)", "setting": "[2]; concentration 1000 μg/mL", "result": "88.17 ± 0.43", "unit": "%"}]}
{"smiles": "S=C(NC(c1ccccn1)C(Cc1ccccc1)Cc1ccccc1)NC(c1ccccn1)C(Cc1ccccc1)Cc1ccccc1", "note": "(centres unmarked) [Compound I, 1,3-bis(2-benzyl-3-phenyl-1-(pyridine-2-yl)propyl)thiourea]", "values": [{"measurement": "IC50", "setting": "[3]", "result": 1550, "unit": "µM"}, {"measurement": "%AChE Inhibition (mean ± SEM)", "setting": "[3]; concentration 500 μg/mL", "result": "55.59 ± 1.23", "unit": "%"}, {"measurement": "inhibition at 125 µg/mL", "setting": "[3]; [10]", "result": "38.6 ± 1.33", "unit": "%"}, {"measurement": "inhibition at 250 µg/mL", "setting": "[3]; [10]", "result": "46.1 ± 1.85", "unit": "%"}, {"measurement": "inhibition at 1000 µg/mL", "setting": "[3]; [10]", "result": "68.1 ± 1.4", "unit": "%"}, {"measurement": "IC50", "setting": "[4]", "result": 309, "unit": "µM"}, {"measurement": "inhibition at 125 µg/mL", "setting": "[4]; [11]", "result": "48.1 ± 1.08", "unit": "%"}, {"measurement": "inhibition at 250 µg/mL", "setting": "[4]; [11]", "result": "51.4 ± 2.05", "unit": "%"}, {"measurement": "inhibition at 500 µg/mL", "setting": "[4]; [11]", "result": "56.3 ± 1.66", "unit": "%"}, {"measurement": "inhibition at 1000 µg/mL", "setting": "[4]; [11]", "result": "57.81 ± 0.54", "unit": "%"}, {"measurement": "IC50", "setting": "[5]", "result": 130, "unit": "µM"}, {"measurement": "inhibition at 125 µg/mL", "setting": "[5]; read-out: %Inhibition (mean ± SEM), alpha amylase, concentration 125 µg/mL", "result": "60.2 ± 1.03", "unit": "%"}, {"measurement": "inhibition at 250 µg/mL", "setting": "[5]; read-out: %Inhibition (mean ± SEM), alpha amylase, concentration 250 µg/mL", "result": "63.1 ± 1.41", "unit": "%"}, {"measurement": "inhibition at 500 µg/mL", "setting": "[5]; read-out: %Inhibition (mean ± SEM), alpha amylase, concentration 500 µg/mL", "result": "68.1 ± 0.87", "unit": "%"}, {"measurement": "inhibition at 1000 µg/mL", "setting": "[5]; read-out: %Inhibition (mean ± SEM), alpha amylase, concentration 1000 µg/mL", "result": "70.29 ± 0.31", "unit": "%"}, {"measurement": "Total Activity of glucose-6-phosphatase", "setting": "[6]; concentration 125 µg/mL", "result": "34.11 mg of P released per hour"}, {"measurement": "Total Activity of glucose-6-phosphatase", "setting": "[6]; concentration 250 µg/mL", "result": "31.62 mg of P released per hour"}, {"measurement": "Total Activity of glucose-6-phosphatase", "setting": "[6]; concentration 500 µg/mL", "result": "25.31 mg of P released per hour"}, {"measurement": "DPPH IC50", "setting": "[1]", "result": 67, "unit": "µg/mL"}, {"measurement": "DPPH % I (mean ± S.E.M)", "setting": "[1]; concentration 125 μg/mL", "result": "78.55 ± 1.73", "unit": "%"}, {"measurement": "DPPH % I (mean ± S.E.M)", "setting": "[1]; concentration 250 μg/mL", "result": "80.21 ± 1.21", "unit": "%"}, {"measurement": "DPPH % I (mean ± S.E.M)", "setting": "[1]; concentration 500 μg/mL", "result": "82.16 ± 1.01", "unit": "%"}, {"measurement": "DPPH % I (mean ± S.E.M)", "setting": "[1]; concentration 1000 μg/mL", "result": "86.67 ± 1.20", "unit": "%"}, {"measurement": "ABTS IC50", "setting": "[2]", "result": 66, "unit": "µg/mL"}, {"measurement": "ABTS % I (mean ± S.E.M)", "setting": "[2]; concentration 125 μg/mL", "result": "77.55 ± 1.93", "unit": "%"}, {"measurement": "ABTS % I (mean ± S.E.M)", "setting": "[2]; concentration 250 μg/mL", "result": "78.21 ± 1.21", "unit": "%"}, {"measurement": "ABTS % I (mean ± S.E.M)", "setting": "[2]; concentration 500 μg/mL", "result": "80.16 ± 2.01", "unit": "%"}, {"measurement": "ABTS % I (mean ± S.E.M)", "setting": "[2]; concentration 1000 μg/mL", "result": "81.67 ± 1.20", "unit": "%"}, {"measurement": "MIC", "setting": "[7]; read-out: MIC, Agrobacterium tumefaction", "result": 4.02, "unit": "µg/mL"}, {"measurement": "zone of inhibition at 10 µg/mL", "setting": "[7]; [12]", "result": 21, "unit": "mm"}, {"measurement": "zone of inhibition at 20 µg/mL", "setting": "[7]; [12]", "result": 24, "unit": "mm"}, {"measurement": "zone of inhibition at 30 µg/mL", "setting": "[7]; [12]", "result": 26, "unit": "mm"}, {"measurement": "MIC", "setting": "[8]; read-out: MIC, Proteus vulgaris", "result": 9.76, "unit": "µg/mL"}, {"measurement": "zone of inhibition at 10 µg/mL", "setting": "[8]; [13]", "result": 15, "unit": "mm"}, {"measurement": "zone of inhibition at 20 µg/mL", "setting": "[8]; [13]", "result": 22, "unit": "mm"}, {"measurement": "zone of inhibition at 30 µg/mL", "setting": "[8]; [13]", "result": 24, "unit": "mm"}, {"measurement": "MIC", "setting": "[9]; read-out: MIC, Staphylococcus aureus", "result": 19.6, "unit": "µg/mL"}, {"measurement": "zone of inhibition at 10 µg/mL", "setting": "[9]; [14]", "result": 13, "unit": "mm"}, {"measurement": "zone of inhibition at 20 µg/mL", "setting": "[9]; [14]", "result": 16, "unit": "mm"}, {"measurement": "zone of inhibition at 30 µg/mL", "setting": "[9]; [14]", "result": 18, "unit": "mm"}]}
